Assay results as given in the supplement of paper PMC10307832.

How the values were obtained:
Experiment in all cases: relative viability (nuclei count vs DMSO), 5 days (fraction); higher = more cells survive
[1] = system: NCI-H1623
How it was run: (§1)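 One day after seeding in 1536-well plates, lung cancer cell lines were dosed by pin tool. Dosing was either single-drug or a fixed anchor-drug dose plus five library-drug doses (not always all listed) in √10 steps. After 5 days, nuclei were stained in one fix-and-stain step and counted on 4× images, and relative viability is the nuclei count of treated wells over that of vehicle wells, given as the median of duplicate plates.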

[2] = system: PC-3 [JPC-3]
How it was run: as §1

[3] = system: NCI-H520
How it was run: as §1

[4] = system: NCI-H838
How it was run: as §1

[5] = system: NCI-H650
How it was run: as §1

[6] = system: NCI-H1651
How it was run: as §1

[7] = system: NCI-H1944
How it was run: as §1

[8] = system: NCI-H1648
How it was run: as §1

[9] = system: RERF-LC-KJ
How it was run: as §1

Work on COc1cc2nccc(Oc3ccc(NC(=O)Nc4cc(C)on4)c(Cl)c3)c2cc1OC [Tivozanib] + COc1cccc2cc(-c3nc([C@H]4CC[C@H](C(=O)O)CC4)n4ncnc(N)c34)[nH]c12 [OSI-027] (partner 0.5 µM) yielded a relative viability ([1]; first compound 0.005 µM) of 0.414, a relative viability ([1]; first compound 0.01581 µM) of 0.445 and a relative viability ([1]; first compound 0.05 µM) of 0.431. It also gave a relative viability ([1]; first compound 0.1581 µM) of 0.407, a relative viability ([1]; first compound 0.5 µM) of 0.459 and a relative viability ([2]; first compound 0.005 µM) of 0.665. For the same compound, the relative viability ([2]; first compound 0.01581 µM) was 0.722, the relative viability ([2]; first compound 0.05 µM) was 0.774 and the relative viability ([2]; first compound 0.1581 µM) was 0.591. For the same compound, the relative viability ([2]; first compound 0.5 µM) was 0.733, the relative viability ([3]; first compound 0.005 µM) was 0.244 and the relative viability ([3]; first compound 0.01581 µM) was 0.249. It also gave a relative viability ([3]; first compound 0.05 µM) of 0.267, a relative viability ([3]; first compound 0.1581 µM) of 0.167 and a relative viability ([3]; first compound 0.5 µM) of 0.313. The relative viability ([4]; first compound 0.005 µM) was 0.364, the relative viability ([4]; first compound 0.01581 µM) was 0.404 and the relative viability ([4]; first compound 0.05 µM) was 0.357. It also gave a relative viability ([4]; first compound 0.5 µM) of 0.38, a relative viability ([5]; first compound 0.005 µM) of 0.489 and a relative viability ([5]; first compound 0.01581 µM) of 0.577. It also gave a relative viability ([5]; first compound 0.05 µM) of 0.613, a relative viability ([5]; first compound 0.1581 µM) of 0.44 and a relative viability ([5]; first compound 0.5 µM) of 0.398. The relative viability ([6]; first compound 0.005 µM) was 0.759, the relative viability ([6]; first compound 0.01581 µM) was 0.721 and the relative viability ([6]; first compound 0.05 µM) was 0.737. For the same compound, the relative viability ([6]; first compound 0.1581 µM) was 0.497, the relative viability ([6]; first compound 0.5 µM) was 0.67 and the relative viability ([7]; first compound 0.005 µM) was 0.396. It also gave a relative viability ([7]; first compound 0.01581 µM) of 0.431, a relative viability ([7]; first compound 0.05 µM) of 0.449 and a relative viability ([7]; first compound 0.1581 µM) of 0.344. It also gave a relative viability ([7]; first compound 0.5 µM) of 0.447, a relative viability ([8]; first compound 0.005 µM) of 0.255 and a relative viability ([8]; first compound 0.01581 µM) of 0.25. For the same compound, the relative viability ([8]; first compound 0.05 µM) was 0.221, the relative viability ([8]; first compound 0.1581 µM) was 0.218 and the relative viability ([8]; first compound 0.5 µM) was 0.258. For the same compound, the relative viability ([9]; first compound 0.005 µM) was 0.458, the relative viability ([9]; first compound 0.01581 µM) was 0.62 and the relative viability ([9]; first compound 0.05 µM) was 0.657. It also gave a relative viability ([9]; first compound 0.1581 µM) of 0.415 and a relative viability ([9]; first compound 0.5 µM) of 0.59.

COc1cc2nccc(Oc3ccc(NC(=O)Nc4cc(C)on4)c(Cl)c3)c2cc1OC [Tivozanib] + Cc1cc(Nc2cc(N3CCN(C)CC3)nc(Sc3ccc(NC(=O)C4CC4)cc3)n2)n[nH]1 [Tozasertib] (partner 0.1 µM) showed a relative viability ([1]; first compound 0.005 µM) of 0.42, a relative viability ([1]; first compound 0.01581 µM) of 0.467 and a relative viability ([1]; first compound 0.05 µM) of 0.47. It also gave a relative viability ([1]; first compound 0.5 µM) of 0.424, a relative viability ([2]; first compound 0.005 µM) of 0.802 and a relative viability ([2]; first compound 0.01581 µM) of 0.869. For the same compound, the relative viability ([2]; first compound 0.05 µM) was 0.94, the relative viability ([2]; first compound 0.1581 µM) was 0.77 and the relative viability ([2]; first compound 0.5 µM) was 0.837. For the same compound, the relative viability ([3]; first compound 0.005 µM) was 0.402, the relative viability ([3]; first compound 0.01581 µM) was 0.373 and the relative viability ([3]; first compound 0.05 µM) was 0.446. It also gave a relative viability ([3]; first compound 0.1581 µM) of 0.444, a relative viability ([3]; first compound 0.5 µM) of 0.433 and a relative viability ([4]; first compound 0.005 µM) of 0.268. For the same compound, the relative viability ([4]; first compound 0.01581 µM) was 0.291, the relative viability ([4]; first compound 0.05 µM) was 0.29 and the relative viability ([4]; first compound 0.5 µM) was 0.291. It also gave a relative viability ([5]; first compound 0.005 µM) of 0.763, a relative viability ([5]; first compound 0.01581 µM) of 0.743 and a relative viability ([5]; first compound 0.05 µM) of 0.743. For the same compound, the relative viability ([5]; first compound 0.1581 µM) was 0.732, the relative viability ([5]; first compound 0.5 µM) was 0.594 and the relative viability ([6]; first compound 0.005 µM) was 0.698. For the same compound, the relative viability ([6]; first compound 0.01581 µM) was 0.768, the relative viability ([6]; first compound 0.05 µM) was 0.758 and the relative viability ([6]; first compound 0.1581 µM) was 0.764. For the same compound, the relative viability ([6]; first compound 0.5 µM) was 0.565, the relative viability ([7]; first compound 0.005 µM) was 0.251 and the relative viability ([7]; first compound 0.01581 µM) was 0.245. For the same compound, the relative viability ([7]; first compound 0.05 µM) was 0.257, the relative viability ([7]; first compound 0.1581 µM) was 0.269 and the relative viability ([7]; first compound 0.5 µM) was 0.297. For the same compound, the relative viability ([8]; first compound 0.005 µM) was 0.482, the relative viability ([8]; first compound 0.01581 µM) was 0.534 and the relative viability ([8]; first compound 0.05 µM) was 0.436. The relative viability ([8]; first compound 0.1581 µM) was 0.536, the relative viability ([8]; first compound 0.5 µM) was 0.545 and the relative viability ([9]; first compound 0.005 µM) was 0.477. It also gave a relative viability ([9]; first compound 0.01581 µM) of 0.482, a relative viability ([9]; first compound 0.05 µM) of 0.533 and a relative viability ([9]; first compound 0.1581 µM) of 0.534. The relative viability ([9]; first compound 0.5 µM) was 0.496.
